In patent publication US20230107642A1 (Erasca, Inc., priority 2020, published 2023):

molecular target: T1, K-Ras G12C (Homo sapiens, UniProt P01116, G12C); test: CAF assay (% CAF; method in Example 7, not in this part); assay type: binding; settings: 10 uM compound, 1 h incubation
T1 construct: This protein contained 188 amino acids in total, including an N-terminal 6-Histidine tag; made in house; host or cells: E. coli BL21

SMILES | % CAF @ 10 uM, 1h [%]
C=CC(=O)N1C[C@H](C)N(c2nc(=O)n3c4c(c(-c5ccc(F)cc5F)c(Cl)cc24)SC[C@@H]3CN2CCn3c(nnc3C(F)(F)F)C2)C[C@H]1C [Example 468, (3S)-7-((2S,5R)-4-acryloyl-2,5-dimethylpiperazin-1-yl)-9-chloro-10-(2,4-difluorophenyl)-3-((3-(trifluoromethyl)-5,6-dihydro-[1,2,4]triazolo[4,3-a]pyrazin-7(8H)-yl)methyl)-2H-[1,4]thiazino[2,3,4-ij]quinazolin-5(3H)-one] | 68.6
C=CC(=O)N1C2CN(c3nc(=O)n4c5c(c(-c6ccc(F)cc6F)c(C(F)(F)F)cc35)SC[C@@H]4COC)CC1CC(F)(F)C2 [Example 523, (3S)-7-(9-acryloyl-7,7-difluoro-3,9-diazabicyclo[3.3.1]nonan-3-yl)-10-(2,4-difluorophenyl)-3-(methoxymethyl)-9-(trifluoromethyl)-2H-[1,4]thiazino[2,3,4-ij]quinazolin-5(3H)-one] | 68.9
C/C=C/C(=O)N1C2CC(=O)CC1CN(c1nc(=O)n3c4c(c(-c5ccc(F)cc5F)c(C(F)(F)F)cc14)SCC3)C2 [Example 452, (E)-7-(9-(but-2-enoyl)-7-oxo-3,9-diazabicyclo[3.3.1]nonan-3-yl)-10-(2,4-difluorophenyl)-9-(trifluoromethyl)-2,3-dihydro-5H-[1,4]thiazino[2,3,4-ij]quinazolin-5-one] | 63
C=CC(=O)N1C[C@H](C)N(c2nc(=O)n3c4c(c(-c5ccc(F)cc5)c(Cl)cc24)SC[C@@H]3CN2CCC3(CC2)COC3)C[C@H]1C [Example 473, (S)-3-(2-oxa-7-azaspiro[3.5]nonan-7-ylmethyl)-7-((2S,5R)-4-acryloyl-2,5-dimethylpiperazin-1-yl)-9-chloro-10-(4-fluorophenyl)-2H-[1,4]thiazino[2,3,4-ij]quinazolin-5(3H)-one] | 65.8
C=CC(=O)N1C[C@H](C)N(c2nc(=O)n3c4c(c(-c5ccc(F)cc5)c(Cl)cc24)SC[C@@H]3CN2CCn3c(nnc3C(F)(F)F)C2)C[C@H]1C [Example 445, (S)-7-((2S,5R)-4-acryloyl-2,5-dimethylpiperazin-1-yl)-9-chloro-10-(4-fluorophenyl)-3-((3-(trifluoromethyl)-5,6-dihydro-[1,2,4]triazolo[4,3-a]pyrazin-7(8H)-yl)methyl)-2H-[1,4]thiazino[2,3,4-ij]quinazolin-5(3H)-one] | 68.2
O=C1CC2CN(c3nc(=O)n4c5c(c(-c6ccc(F)cc6F)c(C(F)(F)F)cc35)SCC4)CC(C1)N2C(=O)/C=C/C(F)(F)F [Example 440, (E)-10-(2,4-difluorophenyl)-7-(7-oxo-9-(4,4,4-trifluorobut-2-enoyl)-3,9-diazabicyclo[3.3.1]nonan-3-yl)-9-(trifluoromethyl)-2,3-dihydro-5H-[1,4]thiazino[2,3,4-ij]quinazolin-5-one] | 96
C=CC(=O)N1C[C@H](C)N(c2nc(=O)n3c4c(c(-c5cc(Cl)c(F)cc5F)c(Cl)cc24)SC[C@@H]3COCCOC)C[C@H]1C [Example 502, (3S)-7-((2S,5R)-4-acryloyl-2,5-dimethylpiperazin-1-yl)-9-chloro-10-(5-chloro-2,4-difluorophenyl)-3-((2-methoxyethoxy)methyl)-2H-[1,4]thiazino[2,3,4-ij]quinazolin-5(3H)-one] | 65.1
C=CC(=O)N1C[C@H](C)N(c2nc(=O)n3c4c(c(-c5cc(F)c(F)cc5F)c(Cl)cc24)SC[C@@H]3CN2CCC3(CC2)COC3)C[C@H]1C (atropisomer, axis not shown) [Example 484, (3S,10S)-3-((2-oxa-7-azaspiro[3.5]nonan-7-yl)methyl)-7-((2S,5R)-4-acryloyl-2,5-dimethylpiperazin-1-yl)-9-chloro-10-(2,4,5-trifluorophenyl)-2,3-dihydro-5H-[1,4]thiazino[2,3,4-ij]quinazolin-5-one] | 77.9

More lines, now with the values ahead:

% CAF @ 10 uM, 1h [%] | SMILES
25.3 | C=CC(=O)N1CCN(c2nc(=O)n3c4c(c(-c5ccc(F)cc5F)c(Cl)cc24)SC2(CC2)C3)[C@@H](C)C1 [Example 433, 7′-((S)-4-acryloyl-2-methylpiperazin-1-yl)-9′-chloro-10′-(2,4-difluorophenyl)-3′H,5′H-spiro[cyclopropane-1,2′-[1,4]thiazino[2,3,4-ij]quinazolin]-5′-one]
87 | C=CC(=O)N1CCN(c2nc(=O)n3c4c(c(-c5ccc(F)cc5F)c(C(F)(F)F)cc24)S[C@@H](CN(C)C)C3)[C@@H](C)C1 [Example 442, (2S)-7-((S)-4-acryloyl-2-methylpiperazin-1-yl)-10-(2,4-difluorophenyl)-2-((dimethylamino)methyl)-9-(trifluoromethyl)-2,3-dihydro-5H-[1,4]thiazino[2,3,4-ij]quinazolin-5-one]
61 | C=CC(=O)N1CCN(c2nc(=O)n3c4c(c(-c5ccc(F)cc5F)c(C(F)(F)F)cc24)S(=O)(=O)C[C@@H]3CC2CCN(CC(F)F)CC2)[C@@H](C)C1 [Example 429, (3S)-7-((S)-4-acryloyl-2-methylpiperazin-1-yl)-3-((1-(2,2-difluoroethyl)piperidin-4-yl)methyl)-10-(2,4-difluorophenyl)-9-(trifluoromethyl)-2H-[1,4]thiazino[2,3,4-ij]quinazolin-5(3H)-one 1,1-dioxide]
61 | C=CC(=O)N1CCN(c2nc(=O)n3c4c(c(-c5ccc(F)cc5F)c(C(F)(F)F)cc24)SCCC3)[C@@H](C)C1 [Example 450, 8-((S)-4-acryloyl-2-methylpiperazin-1-yl)-11-(2,4-difluorophenyl)-10-(trifluoromethyl)-3,4-dihydro-2H,6H-[1,4]thiazepino[2,3,4-ij]quinazolin-6-one]
96 | C=CC(=O)N1CCN(c2nc(=O)n3c4c(c(-c5ccc(F)cc5F)c(Cl)cc24)SC[C@@H](OC)C3)[C@@H](C)C1 [Example 487, (3S)-8-((S)-4-acryloyl-2-methylpiperazin-1-yl)-10-chloro-11-(2,4-difluorophenyl)-3-methoxy-3,4-dihydro-2H,6H-[1,4]thiazepino[2,3,4-ij]quinazolin-6-one]
88.6 | C=CC(=O)N1[C@H](C)CN(c2nc(=O)n3c4c(c(-c5ccc(F)cc5F)c(C(F)(F)F)cc24)SCC2(COC2)C3)C[C@@H]1C [Example 531, 8′-((3S,5R)-4-Acryloyl-3,5-dimethylpiperazin-1-yl)-11′-(2,4-difluorophenyl)-10′-(trifluoromethyl)-2′H,4′H,6′H-spiro[oxetane-3,3′-[1,4]thiazepino[2,3,4-ij]quinazolin]-6′-one]
88 | C=CC(=O)N1CCN(c2nc(=O)n3c4c(c(-c5cc(Cl)c(F)cc5F)c(C(F)(F)F)cc24)SC[C@@H](OC)C3)CC1 [Example 582, (3S)-8-(4-acryloylpiperazin-1-yl)-11-(5-chloro-2,4-difluorophenyl)-3-methoxy-10-(trifluoromethyl)-3,4-dihydro-2H,6H-[1,4]thiazepino[2,3,4-ij]quinazolin-6-one]

same assay, conditions: 10 uM, 1 h; Table 3

SMILES | % CAF @ 10 uM, 1h [%]
C=CC(=O)N1CCN(c2nc(=O)n3c4c(c(-c5c(F)cc(F)cc5F)c(Cl)cc24)SC[C@@H]3CCCN2C[C@@H]3C[C@H]2CO3)[C@@H](C)C1 [Example 109, (S)-3-(3-((1S,4S)-2-oxa-5-azabicyclo[2.2.1]heptan-5-yl)propyl)-7-((S)-4-acryloyl-2-methylpiperazin-1-yl)-9-chloro-10-(2,4,6-trifluorophenyl)-2,3-dihydro-5H-[1,4]thiazino[2,3,4-ij]quinazolin-5-one] | 96.9
C=CC(=O)N1CCN(c2nc(=O)n3c4c(c(-c5ccc(F)cc5F)c(Cl)cc24)SC[C@H]3CCCN2C[C@@H]3C[C@H]2CO3)[C@@H](C)C1 [Example 97, (3R)-3-(3-((1S,4S)-2-oxa-5-azabicyclo[2.2.1]heptan-5-yl)propyl)-7-((S)-4-acryloyl-2-methylpiperazin-1-yl)-9-chloro-10-(2,4-difluorophenyl)-2,3-dihydro-5H-[1,4]thiazino[2,3,4-ij]quinazolin-5-one] | 96.5

Second part, the compound after the results:

% CAF @ 10 uM, 1h [%] | SMILES
86.8 | C=CC(=O)N1CCN(c2nc(=O)n3c4c(c(-c5ccc(F)cc5F)c(Cl)cc24)SC(C)(C)C3)[C@@H](C)C1 [Example 75, 7-((S)-4-acryloyl-2-methylpiperazin-1-yl)-9-chloro-10-(2,4-difluorophenyl)-2,2-dimethyl-2,3-dihydro-5H-[1,4]thiazino[2,3,4-ij]quinazolin-5-one]
93.8 | C=CC(=O)N1C[C@H](C)N(c2nc(=O)n3c4c(c(-c5ccc(F)cc5F)c(Cl)cc24)SCC3)C[C@H]1C [Example 189, 7-((2S,5R)-4-acryloyl-2,5-dimethylpiperazin-1-yl)-9-chloro-10-(2,4-difluorophenyl)-2,3-dihydro-5H-[1,4]thiazino[2,3,4-ij]quinazolin-5-one]
55.3 | C=CC(=O)N1CCN(c2nc(=O)n3c4c(c(-c5cc(O)ccc5F)c(Cl)cc24)SCC3)[C@@H](C)C1 [Example 152, 7-((S)-4-acryloyl-2-methylpiperazin-1-yl)-9-chloro-10-(2-fluoro-5-hydroxyphenyl)-2,3-dihydro-5H-[1,4]thiazino[2,3,4-ij]quinazolin-5-one]
21.7 | C=C(F)C(=O)N1CCN(c2nc(=O)n3c4c(c(-c5ccc(F)cc5F)c(Cl)cc24)SCC3)[C@@H](C)C1 [Example 113, 9-chloro-10-(2,4-difluorophenyl)-7-((S)-4-(2-fluoroacryloyl)-2-methylpiperazin-1-yl)-2,3-dihydro-5H-[1,4]thiazino[2,3,4-ij]quinazolin-5-one]

same assay, conditions: 10 μM, 1 h; Table 4

% CAF @ 10 μM, 1 h [%] | SMILES
79.3 | C=CC(=O)N1CCN(c2nc(=O)n3c4c(c(-c5ccc(F)cc5F)c(Cl)cc24)SC[C@H]3CN2CCN(CC)CC2)[C@@H](C)C1 [Example 346, (3R)-7-((S)-4-acryloyl-2-methylpiperazin-1-yl)-9-chloro-10-(2,4-difluorophenyl)-3-((4-ethylpiperazin-1-yl)methyl)-2H-[1,4]thiazino[2,3,4-ij]quinazolin-5(3H)-one]
